Measurements: ChEMBL document CHEMBL1133187, “Novel antiarthritic agents with 1,2-isothiazolidine-1,1-dioxide (gamma-sultam) skeleton: cytokine suppressive dual inhibitors of cyclooxygenase-2 and 5-lipoxygenase” (J Med Chem, 2000)

Assays:
Rattus norvegicus [1] = species: Rattus norvegicus; experiment: In vitro inhibitory effect on production of, Prostaglandin E2 (PGE2) in rat synovial cells; format: functional
Rattus norvegicus [2] = species: Rattus norvegicus; experiment: In vitro inhibitory effect on production of, calcium ionophore (A23187) -induced Leukotriene B4 (LTB4) in rat peritoneal cells; format: functional, cell-based
THP-1 [3] = experiment: In vitro inhibitory effect on production of, lipopolysaccharide (LPS) -induced IL1-beta in human THP-1 cells; format: functional, cell-based
Cyclooxygenase = target: T1, Cyclooxygenase (Rattus norvegicus, UniProt P35355+Q63921)
T1 sequence (P35355 whole entry): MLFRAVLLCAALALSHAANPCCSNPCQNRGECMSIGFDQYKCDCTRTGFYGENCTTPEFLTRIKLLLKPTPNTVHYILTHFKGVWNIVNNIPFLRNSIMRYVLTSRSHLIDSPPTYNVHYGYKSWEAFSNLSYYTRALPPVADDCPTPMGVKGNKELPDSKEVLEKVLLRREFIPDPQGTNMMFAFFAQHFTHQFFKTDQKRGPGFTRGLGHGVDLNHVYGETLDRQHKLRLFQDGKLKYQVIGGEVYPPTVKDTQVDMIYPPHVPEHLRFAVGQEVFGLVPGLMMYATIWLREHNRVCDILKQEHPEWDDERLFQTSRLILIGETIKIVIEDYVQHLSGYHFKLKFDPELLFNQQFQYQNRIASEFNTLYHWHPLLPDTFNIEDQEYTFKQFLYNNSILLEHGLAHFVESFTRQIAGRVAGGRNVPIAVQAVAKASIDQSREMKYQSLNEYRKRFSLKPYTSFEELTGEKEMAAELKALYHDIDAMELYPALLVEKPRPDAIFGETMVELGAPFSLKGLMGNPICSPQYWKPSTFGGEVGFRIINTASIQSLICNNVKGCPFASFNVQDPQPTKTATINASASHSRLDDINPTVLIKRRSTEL
T1 sequence (Q63921 whole entry): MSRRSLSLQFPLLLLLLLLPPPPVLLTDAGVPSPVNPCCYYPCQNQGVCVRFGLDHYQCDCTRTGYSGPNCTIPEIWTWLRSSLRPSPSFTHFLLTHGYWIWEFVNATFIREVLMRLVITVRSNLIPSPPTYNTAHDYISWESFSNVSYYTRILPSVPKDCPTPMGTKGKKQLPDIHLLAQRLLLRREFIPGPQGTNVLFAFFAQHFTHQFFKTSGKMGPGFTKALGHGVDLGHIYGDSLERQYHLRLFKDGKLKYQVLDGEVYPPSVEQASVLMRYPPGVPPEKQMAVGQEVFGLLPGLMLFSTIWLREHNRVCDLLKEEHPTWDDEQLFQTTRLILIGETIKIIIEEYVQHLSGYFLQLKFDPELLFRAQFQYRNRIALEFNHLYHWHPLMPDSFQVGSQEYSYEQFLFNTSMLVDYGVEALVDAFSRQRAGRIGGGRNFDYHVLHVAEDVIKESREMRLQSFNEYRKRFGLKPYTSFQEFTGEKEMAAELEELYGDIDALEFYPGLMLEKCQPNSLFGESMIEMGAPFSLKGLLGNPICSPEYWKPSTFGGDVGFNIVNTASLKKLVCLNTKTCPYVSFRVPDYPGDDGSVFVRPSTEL
Description: In vitro inhibitory effect on production of prostaglandin E2 (PGE2) in rat synovial cells.

Rattus norvegicus [4] = experiment: Percent inhibition of carrageenan-induced foot-pad edema at 30 mg/kg po; format: functional
THP-1 [5] = experiment: In vitro effect on production of lipopolysaccharide (LPS) -induced IL1-beta in human THP-1 cells; format: functional, cell-based
Rattus norvegicus [6] = species: Rattus norvegicus; experiment: In vitro effect on production of calcium ionophore (A23187) -induced Leukotriene B4 (LTB4) in rat peritoneal cells; format: functional, cell-based
Rattus norvegicus [7] = experiment: Percent inhibition of adjuvant-induced arthritis at 10 mg/kg po; format: functional
[8] = Inhibitory effect on production of cyclooxygenase-2 (COX-2) prostaglandin E2 (PGE2) in human IL1-beta stimulated synovial cells
Homo sapiens [9] = species: Homo sapiens; experiment: Inhibitory effect on production of cyclooxygenase-1 (COX-1) thromboxane B2 (TXB2) in human platelet cells
Rattus norvegicus [10] = experiment: Dose required for 30% inhibition of carrageenan-induced edema; format: functional
Rattus norvegicus [11] = species: Rattus norvegicus; experiment: Inhibitory effect for increase in plasma prostaglandin E2 (PGE2) level after arachidonic acid (AA) injection intoCOX-1 non-lipopolysaccharide-treated rats; format: functional
Rattus norvegicus [12] = species: Rattus norvegicus; experiment: Inhibitory effect for increase in plasma prostaglandin E2 (PGE2) level after arachidonic acid (AA) injection into COX-1 non-lipopolysaccharide-treated rats; format: functional
Rattus norvegicus [13] = species: Rattus norvegicus; experiment: Dose required for 30% inhibition of adjuvant-induced arthritis; format: functional
Rattus norvegicus [14] = species: Rattus norvegicus; experiment: Dose required for Ulcerogenic effect; format: functional
Rattus norvegicus [15] = species: Rattus norvegicus; experiment: Inhibitory effect for increase in plasma prostaglandin E2 (PGE2) level after arachidonic acid (AA) injection into COX-2 lipopolysaccharide-treated rats; format: functional
Rattus norvegicus [16] = species: Rattus norvegicus; experiment: Inhibitory effect for increase in plasma prostaglandin E2 (PGE2) level after arachidonic acid (AA) injection into, COX-1 non-lipopolysaccharide-treated rats; format: functional
[17] = Inhibitory effect on production of (COX-2) prostaglandin E2 (PGE2) in human IL1-beta stimulated synovial cells; format: functional
Homo sapiens [18] = species: Homo sapiens; experiment: Inhibitory effect on production of (COX-1) thromboxane B2 (TXB2) in human platelet cells; format: functional, cell-based
Rattus norvegicus [19] = species: Rattus norvegicus
Description: Lengths of bleeding ulcer of drug-administered group

Compound | IC50 (Cyclooxygenase) | IC50 (THP-1 [5]) | IC50 (Rattus norvegicus [6]) | inhibition in vivo at 30 mg/kg (Rattus norvegicus [4]) | further results
CCN1CC/C(=C\c2cc(C)c(O)c(C)c2)S1(=O)=O |  |  |  |  | IC50 (Rattus norvegicus [1]): > 1 µM; IC50 (Rattus norvegicus [2]): 21 µM; IC50 (THP-1 [3]): > 100 µM
CC(C)(C)c1cc(/C=C2\CCN(c3ccc(Cl)cc3)S2(=O)=O)cc(C(C)(C)C)c1O | < 0.001 µM | > 100 µM | 21 µM | 6.3% | 
CC(C)(C)c1cc(/C=C2\CCN(c3ccncc3)S2(=O)=O)cc(C(C)(C)C)c1O | 0.41 µM |  |  |  | 
CC(C)(C)c1cc(/C=C2\CCNS2(=O)=O)cc(C(C)(C)C)c1O | 0.03 µM | > 100 µM | > 100 µM | 17.2% | inhibition in vivo at 10 mg/kg (Rattus norvegicus [7]): 8.8%
CC(C)(C)c1cc(/C=C2\CCN(c3cccnc3)S2(=O)=O)cc(C(C)(C)C)c1O | 0.32 µM |  |  |  | 
CC(C)(C)c1cc(/C=C2\CCCNS2(=O)=O)cc(C(C)(C)C)c1O | 0.0062 µM | 56 µM | 74 µM | 14.7% | 
Cc1ccc(-c2cc(C(F)(F)F)nn2-c2ccc(S(N)(=O)=O)cc2)cc1 [CELECOXIB] |  |  |  |  | IC50 [8]: 0.0079 µM; IC50 (Homo sapiens [9]): 19 µM
COc1ccc2c(c1)c(CC(=O)O)c(C)n2C(=O)c1ccc(Cl)cc1 [INDOMETHACIN] |  | > 100 µM | > 100 µM |  | ED30 (Rattus norvegicus [10]): 0.8 mg/kg; ED50 (Rattus norvegicus [11]): 0.37 mg/kg; ED50 (Rattus norvegicus [12]): 0.37 mg/kg; ED30 (Rattus norvegicus [13]): 0.06 mg/kg; Dose (Rattus norvegicus [14]): 30 mg/kg
CS(=O)(=O)Nc1ccc([N+](=O)[O-])cc1OC1CCCCC1 [NS-398] |  |  |  |  | ED50 (Rattus norvegicus [15]): 1 mg/kg; ED50 (Rattus norvegicus [16]): > 30 mg/kg; IC50 [17]: 0.0019 µM; IC50 (Homo sapiens [18]): 6.8 µM
NC(=O)N1C(=O)/C(=C(\O)c2cccs2)c2cc(Cl)ccc21 [TENIDAP] | 0.053 µM | 16 µM | 45 µM |  | ED30 (Rattus norvegicus [10]): 4 mg/kg; ED50 (Rattus norvegicus [12]): 0.025 mg/kg; ED50 (Rattus norvegicus [15]): 0.05 mg/kg; ED30 (Rattus norvegicus [13]): 1 mg/kg; Dose (Rattus norvegicus [14]): 30 mg/kg; Ulcer index (Rattus norvegicus [19]): 12.9 mm

Second part, led by results:

IC50 (Cyclooxygenase) | IC50 (THP-1 [5]) | IC50 (Rattus norvegicus [6]) | Compound | inhibition in vivo at 30 mg/kg (Rattus norvegicus [4]) | further results
0.24 µM |  |  | CC(C)(C)c1cc(/C=C2\CCN(CCO)S2(=O)=O)cc(C(C)(C)C)c1O |  | 
0.7 µM |  |  | CC(C)(C)c1cc(/C=C2/CCN(O)S2(=O)=O)cc(C(C)(C)C)c1O |  | 
0.013 µM | 19 µM | 1.9 µM | CCCN1CC/C(=C\c2cc(C(C)(C)C)c(O)c(C(C)(C)C)c2)S1(=O)=O | 0.3% | inhibition in vivo at 10 mg/kg (Rattus norvegicus [7]): 11.4%
0.012 µM | 23 µM | 0.8 µM | CCCN1CC/C(=C/c2cc(C(C)(C)C)c(O)c(C(C)(C)C)c2)S1(=O)=O | 11.2% | 
0.34 µM |  |  | CN(C)CCN1CC/C(=C\c2cc(C(C)(C)C)c(O)c(C(C)(C)C)c2)S1(=O)=O |  | 
0.0025 µM | 20 µM | 1.5 µM | CON1CC/C(=C/c2cc(C(C)(C)C)c(O)c(C(C)(C)C)c2)S1(=O)=O | 6% | inhibition in vivo at 10 mg/kg (Rattus norvegicus [7]): 5%
< 0.001 µM | 28 µM | 4.9 µM | CC(=O)N1CC/C(=C\c2cc(C(C)(C)C)c(O)c(C(C)(C)C)c2)S1(=O)=O | 21% | 
< 0.001 µM | 29 µM | 1.8 µM | CN1CC/C(=C/c2cc(C(C)(C)C)c(O)c(C(C)(C)C)c2)S1(=O)=O | 25.2% | 
0.024 µM | 20 µM | 6 µM | CC(C)(C)c1cc(/C=C2\CCN(C(=O)NO)S2(=O)=O)cc(C(C)(C)C)c1O | 14.9% | 
